Laboratory results from patent publication US20130172246A1, “INSULIN GLARGINE VERSUS METFORMIN FOR THE FIRST-LINE TREATMENT OF EARLY TYPE-2 DIABETES” (priority 2011, published 2013).

Tested on: type 2 diabetes patients
Assay: Continuous glucose monitoring (CGM) with standardized test meal, clinical trial insulin glargine vs. metformin
Format: in vivo, human
Design: AUC 2hpp value after a test meal - Visit 1 / AUC 2hpp value after a test meal - Visit 8 / AUC day 2 - visit 8 / AUC day 2 - change / AUC day 3 - visit 8 / AUC day 3 - change / AUC 2 h incremental after TM - visit 8 / AUC 2 h incremental after TM - change / AUC between 5.6 and fasting on day 2 - visit 8 / AUC between 5.6 and fasting on day 2 - change / AUC between 5.6 and fasting on day 3 - visit 8 / AUC between 5.6 and fasting on day 3 - change / AUC 2 h after test meal - visit 8 / AUC 2 h after test meal change: unit not given beside the values
Details: for Glycemic load - visit 8: (FG+Peak+2hppG)·⅓; for Glycemic load - visit 8 / MAGE - visit 8 / AUC day 2 - change / AUC day 2 - visit 8 / AUC day 3 - change / AUC day 3 - visit 8 / AUC between 5.6 and fasting on day 2 - change / AUC between 5.6 and fasting on day 3 - change / AUC 2 h after test meal change / AUC 2 h incremental after TM - change / Glycemic load - change / MAGE - change / AUC 2 h after test meal - visit 8 / AUC between 5.6 and fasting on day 2 - visit 8 / AUC between 5.6 and fasting on day 3 - visit 8 / AUC 2 h incremental after TM - visit 8: per protocol; for Glycemic load - visit 8 / MAGE - visit 8 / AUC day 2 - visit 8 / AUC day 3 - visit 8 / AUC 2 h after test meal - visit 8 / AUC between 5.6 and fasting on day 2 - visit 8 / AUC between 5.6 and fasting on day 3 - visit 8 / AUC 2 h incremental after TM - visit 8: week 36; for Glycemic load - visit 8 / AUC 2hpp value after a test meal - Visit 1 / MAGE - visit 8 / AUC 2 h after test meal change / AUC 2 h incremental after TM - change / Glycemic load - change / MAGE - change / AUC 2 h incremental after TM - visit 8 / AUC 2hpp value after a test meal - Visit 8: mean (SD); for fall of the total area under the curve (AUC-IG): CGM, p=0.04; for fall of the total area under the curve (AUC-IG) / decrease in the interstitial glucose level during CGM (Δ): start to end of study; for AUC 2hpp value after a test meal - Visit 1: baseline (week 0) before treatment; for MAGE - visit 8: mean amplitude of glycemic excursions; for AUC day 2 - change / AUC day 2 - visit 8: CGM day 2; for AUC day 2 - change / AUC day 3 - change / AUC between 5.6 and fasting on day 2 - change / AUC between 5.6 and fasting on day 3 - change / AUC 2 h after test meal change / AUC 2 h incremental after TM - change / Glycemic load - change / MAGE - change: change visit 1 to visit 8; for AUC day 2 - change / AUC day 2 - visit 8 / AUC day 3 - change / AUC day 3 - visit 8 / AUC between 5.6 and fasting on day 2 - change / AUC between 5.6 and fasting on day 3 - change / AUC 2 h after test meal - visit 8 / AUC between 5.6 and fasting on day 2 - visit 8 / AUC between 5.6 and fasting on day 3 - visit 8: mean; for AUC day 3 - change / AUC day 3 - visit 8: CGM day 3; for decrease in the interstitial glucose level during CGM (Δ): GLA vs. MET p=0.02; for AUC 2hpp value after a test meal - Visit 8: week 36 of treatment
Experimental: The primary target variable determined was the Area Under the Curve (AUC) in mmol/L/time in subcutaneous abdominal fat after a test meal (TM) in a 2-hour course, which was determined by continuous blood glucose monitoring. The test meal was administered on the 2nd day of the CGM as breakfast. • AUC [mmol/L/time] 2 h pp
CGMS: The system used for continuous glucose monitoring is the CGMS from Medtronic, CGMS® System Gold™ monitor/MiniMed glucose subcutaneous sensor. The system is authorized for continuous glucose monitoring over a period of 72 h. The measurement sensor is inserted into subcutaneous fat tissue with the aid of an applicator. The entire sensor is stuck on the skin using a plaster. This is followed by the calibration of the device for approximately 5 hours, during which the subcutaneous levels are synchronized with the capillary blood glucose levels. Over the course of 72 h, further calibrations are required, as recommended by the manufacturer. The measured data of the sensor are transmitted by means of radio frequency to the CGMS® System Gold™ monitor, which is worn on the belt for example. After completion of the measurement period, the sensor is removed and the data of the monitor are evaluated on the computer using the software. For the evaluation, only the measured data of the first 48 hours are used, since the accuracy of measurement decreases over the course of the third day.
Test meal: On the morning of the 2nd day of the CGM, there is a standardized test meal in the trial center. This test meal (TM) consists of 95 g of whole-wheat bread, 20 g of margarine, 25 g of fruit preserves, 25 g of cheese, 200 ml of orange juice, 200 ml of milk mix with banana, strawberry or cocoa with a total of 560 Kcal. Blood is taken from the patient prior to the TM (after night-time fasting period of at least 8 hours). Subsequently, the TM should be eaten within 15 min. From the 1st bite, the time is measured, and after 2 h have elapsed, a 2nd blood collection is performed. During the TM and during the two hours thereafter, the patient should move as little as possible so as not to falsify the monitoring.
The primary target variable is the AUC (BG) TM of the glucose concentration in subcutaneous abdominal fat after a standardized test meal over a period of 2 hours. The AUC is calculated accordina to the trapezoidal rule.
• Mean HbA1c, • Glycemic variability: • Standard deviation (SD) of the mean glucose concentration over 24 h (day 2), • MAGE—mean amplitude of glycemic excursion calculated as the mean from the glucose increases>1 SD of the mean glucose concentration over the course of 24 h • Glycemic load calculated by (FG+Peak+2hppG)·⅓ • Mean of C-peptide and intact proinsulin (fasting and 2 h pp) • Mean free fatty acids • Biomarkers of subclinical inflammation (hsCRP, PAI-1, leukocyte count fasting and 2 h postprandial) • Microalbuminuria (albumin/creatinine ratio) • Endothelial function at ball of thumb using laser Doppler (O2C) • Hypoglycemic intervals (time<3 mmol glucose) during CGM over 48 hours (day 2+3 after TM)
In the study in the previous examples, 75 patients (45 men, 30 women, mean age: 60.7±9.2 years) were examined, whose first diagnosis of type 2 diabetes dated back to less than 5 years and whose HbA1c level was between 6.5 and 8.5%. The patients were treated with either metformin (MET, 1000 mg b.i.d. (n=3)) or insulin glargine (GLA) q.d. just before bedtime (n=3). The insulin dose was adjusted for a target plasma glucose concentration (FPG) of ≦5.6 mmol/L according to a standardized titration algorithm. At the start and end of the study, the HbA1c level and the plasma glucose, proinsulin and C-peptide concentrations were determined. […] All the patients received a standardized test meal on the second day of the continuous glucose monitoring for comparison of the interindividual postprandial (pp) glucose excursions.

Row | Molecule | Glycemic load - visit 8 | fall of the total area under the curve (AUC-IG) [mmol·min/L] | AUC 2hpp value after a test meal - Visit 1 | MAGE - visit 8 | AUC day 2 - change | AUC day 2 - visit 8 | AUC day 3 - change | AUC day 3 - visit 8 | AUC between 5.6 and fasting on day 2 - change | AUC between 5.6 and fasting on day 3 - change | AUC 2 h after test meal change | AUC 2 h incremental after TM - change | Glycemic load - change | MAGE - change | AUC 2 h after test meal - visit 8 | AUC between 5.6 and fasting on day 2 - visit 8 | AUC between 5.6 and fasting on day 3 - visit 8 | AUC 2 h incremental after TM - visit 8 | decrease in the interstitial glucose level during CGM (Δ) [mmol/L] | AUC 2hpp value after a test meal - Visit 8 | also measured
1 | CN(C)C(=N)N=C(N)N [Metformin] | 8.5 (2.1) | 416.1 ± 537.6 | 256.50 (72.837) | 6.3 (2.4) | −416.1 | 1978.5 | −411.5 | 1972.5 | −356.5 | −317.4 | −42.9 (73.1) | −5.8 (31.8) | −1.7 (2.7) | −0.8 (3.3) | 213.6 | −15.4 | 41.1 | 49.6 (25.0) | 1.4 ± 1.8 | 213.61 (52.844) | 
2 | Insulin glargine | 8.8 (1.6) | 671.2 ± 507.9 | 287.38 (67.235) | 8.0 (2.3) | −671.2 | 2000.3 | −628.2 | 2045.0 | −565.4 | −571.5 | −63.0 (5.4) | −5.7 (40.4) | −2.7 (1.9) | −0.4 (3.4) | 224.4 | −58.5 | −11.6 | 68.3 (24.6) | 2.4 ± 1.8 | 224.38 (40.048) | postprandial plasma glucose two hours after a test meal and differences in AUC-IG after the test meal (GLA vs. MET): showed no significance
